# Test results: patent publication EP0060077A1, “Beta-lactam antibiotics, their preparation and use” (BEECHAM GROUP PLC, priority 1981, dated 1982)
# Where two headings read alike, the source gives them in different places.
# Legend:
# E. coli JT 2074 = experiment: MIC (Broth); format: cell-based; conditions: Escherichia coli, JT2074
# Source text: (§1) MIC DATA (Broth) for sodium (5RS,6RS)-4,4-dimethyl-6- [(1SR)-1-hydroxyethyl]-3-(pyrimidin-2-ylsulphinyl)-7-oxo-1-azabicyclo[3.2.0]hept-2-ene-Z-carboxylate (27)
# E. cloacae N1 [T753] = experiment: MIC (Broth); format: cell-based; conditions: Enterobacter cloacae
# Source text: as §1
# Serratia marcescens US32 = experiment: MIC (Broth); format: cell-based
# Source text: as §1
# E. coli 0111 [E8] = experiment: MIC (Broth); format: cell-based; conditions: Escherichia coli
# Source text: as §1
# E. coli JT39 [E96] = experiment: MIC (Broth); format: cell-based; conditions: Escherichia coli
# Source text: as §1
# E. coli JT410 C4 = experiment: MIC (Broth); format: cell-based; conditions: Escherichia coli, JT410C4
# Source text: as §1
# K. aeogenes BA 9J R+ = experiment: MIC (Broth); format: cell-based
# Source text: as §1
# S. aureus 1517 = experiment: MIC (Broth); format: cell-based; conditions: Staphylococcus aureus
# Source text: (§2) MIC DATA (Broth) For sodium (5RS,6RS)-3-[(Z)-2-carba- moylethenylthio)-4,4-dimethyl-6-[(1SR)-1-hydroxyethyl]-7-oxo-l-azabicyclo[3.2.0]hept-2-en-2-carboxylate (32)
# as §1
# P. rettgeri Wm16 = experiment: MIC (Broth); format: cell-based; conditions: Providencia rettgeri
# Source text: as §2, §1
# P. morganii 1580 = experiment: MIC (Broth); format: cell-based; conditions: Morganella morganii
# Source text: as §2, §1
# S. aureus Oxford = experiment: MIC (Broth); format: cell-based; conditions: Staphylococcus aureus
# Source text: as §2, §1
# P. vulgaris W091 = experiment: MIC (Broth); format: cell-based; conditions: Proteus vulgaris
# Source text: as §2, §1
# S. typhimurium CT10 = experiment: MIC (Broth); format: cell-based; conditions: Salmonella enterica
# Source text: as §2, §1
# E. coli ESS = experiment: MIC (Broth); format: cell-based; conditions: Escherichia coli
# Source text: as §2, §1
# B. subtilis A = experiment: MIC (Broth); format: cell-based; conditions: Bacillus subtilis
# Source text: as §2, §1
# K. aerogenes A = experiment: MIC (Broth); format: cell-based; conditions: Klebsiella aerogenes
# Source text: as §2, §1
# P. mirabilis 977 = experiment: MIC (Broth); format: cell-based; conditions: Proteus mirabilis
# Source text: as §2, §1
# S. sonnei MB11 1967 = experiment: MIC (Broth); format: cell-based; conditions: Shigella sonnei, MB111967
# Source text: as §2, §1
# S. aureus Russell = experiment: MIC (Broth); format: cell-based; conditions: Staphylococcus aureus
# Source text: as §2, §1
# C. freundii E8 = experiment: MIC (Broth); format: cell-based; conditions: Citrobacter freundii
# Source text: as §2, §1
# K. aerogenes T767 = experiment: MIC (Broth); format: cell-based; conditions: Klebsiella aerogenes
# Source text: as §2
# K. aerogenes Ba95 = experiment: MIC (Broth); format: cell-based; conditions: Klebsiella aerogenes
# Source text: as §2
# S. pyogenes CN10 = experiment: MIC (Broth); format: cell-based; conditions: Streptococcus pyogenes
# Source text: as §2
# S. pneumoniae CN 33 = experiment: MIC (Broth); format: cell-based; conditions: Streptococcus pneumoniae, CN33
# Source text: as §2
# E. coli 0111 = experiment: MIC (Broth); format: cell-based; conditions: Escherichia coli
# Source text: as §2
# E. cloacae T753 = experiment: MIC (Broth); format: cell-based; conditions: Enterobacter cloacae
# Source text: as §2
# E. cloacae N1 = experiment: MIC (Broth); format: cell-based; conditions: Enterobacter cloacae
# Source text: as §2
# E. coli JT39 = experiment: MIC (Broth); format: cell-based; conditions: Escherichia coli
# Source text: as §2
# E. coli E96 = experiment: MIC (Broth); format: cell-based; conditions: Escherichia coli
# Source text: as §2
# E. coli E8 = experiment: MIC (Broth); format: cell-based; conditions: Escherichia coli
# Source text: as §2
# S. aureus MB9 = experiment: MIC (Broth); format: cell-based; conditions: Staphylococcus aureus
# Source text: as §2
# [1] = Tissue stability in mouse kidney homogenate; format: in vitro ADME; conditions: 2% mouse kidney homogenate mixed with equal volume of 200 µg/ml antibiotic, 37°C, HPLC; relative to MM13902 as standard (1.0)
# Method: (§3) A preparation of 2% mouse kidney homogenate was mixed with equal volumes of a 200 µg/ml solution of the antibiotic to be tested. The stability of the antibiotic at 37°C was studied by removal of aliquots and subjecting them to high pressure liquid chromatographic analysis. The values are given in figures relative to that obtained for MM13902 which is taken as a standard (1.0). Values greater than 1.0 reflect the fold increase in stability relative to MM13902.
# [2] = Tissue stability in human kidney homogenate (comparable test); format: in vitro ADME; conditions: relative to MM13902 as standard (1.0)
# Method: as §3
smiles,measurement,setting,value
"C[C@H](O)[C@@H]1C(=O)N2C(C(=O)[O-])=C([S+]([O-])c3ncccn3)C(C)(C)[C@@H]12.[Na+] (mixture of isomers) [Example 22, Sodium (5RS,6RS)-4,4-dimethyl-6-((1SR)-1-hydroxyethyl]-3-(pyrimidin-2-ylsulphinyl)-7-oxo-1-azabicyclo(3.2.0]hept-2-en-2-carboxylate]",MIC,E. coli JT 2074,25 µg/mL
same,MIC,E. cloacae N1 [T753],25 µg/mL
same,MIC,Serratia marcescens US32,100 µg/mL
same,MIC,E. coli 0111 [E8],25 µg/mL
same,MIC,E. coli JT39 [E96],50 µg/mL
same,MIC,E. coli JT410 C4,25 µg/mL
same,MIC,K. aeogenes BA 9J R+,25 µg/mL
same,MIC,"S. aureus 1517; Broth, S. aureus 1517, read-out: MIC",25 µg/mL
same,MIC,"P. rettgeri Wm16; Broth, P. rettgeri Wm16, read-out: MIC",25 µg/mL
same,MIC,"P. morganii 1580; Broth, P. morganii 1580, read-out: MIC",25 µg/mL
same,MIC,"S. aureus Oxford; Broth, S. aureus Oxford, read-out: MIC",0.8 µg/mL
same,MIC,"P. vulgaris W091; Broth, P. vulgaris W091, read-out: MIC",6.2 µg/mL
same,MIC,"S. typhimurium CT10; Broth, S. typhimurium CT10, read-out: MIC",12.5 µg/mL
same,MIC,"E. coli ESS; Broth, E. coli ESS, read-out: MIC",1.6 µg/mL
same,MIC,"B. subtilis A; Broth, B. subtilis A, read-out: MIC",0.8 µg/mL
same,MIC,"K. aerogenes A; Broth, K. aerogenes A, read-out: MIC",50 µg/mL
same,MIC,"P. mirabilis 977; Broth, P. mirabilis 977, read-out: MIC",25 µg/mL
same,MIC,"S. sonnei MB11 1967; Broth, S. sonnei MB11 1967, read-out: MIC",50 µg/mL
same,MIC,"S. aureus Russell; Broth, S. aureus Russell, read-out: MIC",1.6 µg/mL
same,MIC,"C. freundii E8; Broth, C. freundii E8, read-out: MIC",25 µg/mL
C[C@H](O)[C@@H]1C(=O)N2C(C(=O)[O-])=C(S/C=C\C(N)=O)C(C)(C)[C@@H]12.[Na+] (racemic),MIC,K. aerogenes T767,50 µg/mL
same,MIC,K. aerogenes Ba95,50 µg/mL
same,MIC,S. pyogenes CN10,6.2 µg/mL
same,MIC,S. pneumoniae CN 33,50 µg/mL
same,MIC,E. coli 0111,50 µg/mL
same,MIC,E. cloacae T753,100 µg/mL
same,MIC,E. cloacae N1,25 µg/mL
same,MIC,E. coli JT39,12.5 µg/mL
same,MIC,E. coli E96,50 µg/mL
same,MIC,E. coli E8,50 µg/mL
same,MIC,S. aureus MB9,25 µg/mL
same,Relative Stability,[1],10.8
same,MIC,S. aureus 1517; 1517,25 µg/mL
same,MIC,P. rettgeri Wm16; WM16,25 µg/mL
same,MIC,P. morganii 1580; 1580,25 µg/mL
same,MIC,S. aureus Oxford,6.2 µg/mL
same,MIC,P. vulgaris W091; W091,25 µg/mL
same,MIC,S. typhimurium CT10; TYPHIMURIUM,50 µg/mL
same,MIC,E. coli ESS,3.1 µg/mL
same,MIC,B. subtilis A,1.6 µg/mL
same,MIC,K. aerogenes A,6.2 µg/mL
same,MIC,P. mirabilis 977; 977,25 µg/mL
same,MIC,S. sonnei MB11 1967,25 µg/mL
same,MIC,S. aureus Russell,3.1 µg/mL
same,MIC,C. freundii E8; E8,25 µg/mL
same,Relative Stability,[2],6.9
"CC(=O)N/C=C/SC1=C(C(=O)O)N2C(=O)[C@@H]([C@H](C)OS(=O)(=O)O)[C@H]2C1 [MM13902, reference compound]",Relative Stability,[1],1.4
same,Relative Stability,[2],1.1
